Experiments:
anaesthetised rats = experiment: intravenous toxicity in anaesthetised rats; assay type: in vivo; details: two anaesthetised rats, ten times the dose giving approximate 50% inhibition of gastric secretion in the anaesthetised rat
Protocol: (§1) No overt toxicity or side effects were noted during the rat or dog tests. The compound 4-[3-(4-[2-(2,2,2-trifluoroethyl)guanidino]pyrimid-2-ylthio)propyl]-imidazole was administered intravenously to groups of two anaesthetised rats and four conscious mice at doses which were respectively ten times and one hundred times the dose, in mg./kg., which produced an approximate 50% inhibition of gastric secretion in the anaesthetised rat.

conscious mice = experiment: intravenous toxicity in conscious mice; assay type: in vivo; details: four conscious mice, one hundred times the dose giving approximate 50% inhibition of gastric secretion in the anaesthetised rat
Protocol: as §1

For `NC(=NCC(F)(F)F)Nc1ccnc(SCCCc2c[nH]cn2)n1.O=C(O)/C=C\C(=O)O` [Example 2, 4-[3-(4-[2-(2,2,2-trifluoroethyl)guanidino]pyrimid-2-ylthio)propyl]imidazole dihydrogen maleate], the toxic symptoms (anaesthetised rats) was “No toxic symptoms were noted” and the toxic symptoms (conscious mice) was “No toxic symptoms were noted”.

Source: patent US4463005A, “Bicyclic guanidines” (Imperial Chemical Industries PLC, priority 1981, dated 1984)
